In brackets after ≈: the same amount, converted by molar mass.
Legend:
Salmonella typhimurium [1] = assay: Antibacterial activity against Salmonella typhimurium DT104 assessed as inhibition of bacterial growth incubated for 18 hrs by CLSI protocol based microbroth dilution method; format: functional, Salmonella enterica subsp. enterica serovar Typhimurium; conditions: Salmonella enterica
Clostridium perfringens [2] = assay: Antibacterial activity against Clostridium perfringens assessed as bacterial growth inhibition after 24 hrs by microdilution method; format: functional
Cholinesterase = Cholinesterase (Homo sapiens, UniProt P06276); assay: Inhibition of human BChE using butyrylthiocholine iodide as substrate incubated for 15 mins by spectrophotometric Ellman's method
Acetylcholinesterase [3] = biological target: T1, Acetylcholinesterase (Homo sapiens, UniProt P22303); assay: Inhibition of AChE (unknown origin)
Phytophthora capsici = assay: Antifungal activity against Phytophthora capsici; format: functional, organism-based
Acetylcholinesterase [4] = biological target: T1, Acetylcholinesterase; assay: Inhibition of AChE (unknown origin) using acetylthiocholine iodide as substrate by Ellman's method
[5] = Antibacterial activity against Salmonella enterica subsp. enterica serovar Pullorum assessed as inhibition of bacterial growth incubated for 18 hrs by CLSI protocol based microbroth dilution method; format: functional
Staphylococcus aureus = assay: Antimicrobial activity against Staphylococcus aureus […] assessed as reduction in bacterial growth incubated for 24 hrs by Mueller-Hinton agar based analysis; format: functional
Pseudomonas aeruginosa [6] = assay: Antibacterial activity against Pseudomonas aeruginosa ATCC 15442 assessed as reduction in bacterial growth incubated for 24 hrs by Mueller-Hinton agar based analysis; format: functional
[7] = tested on: Staphylococcus epidermidis; assay: Antimicrobial activity against Staphylococcus epidermidis ATCC 12228 assessed as reduction in bacterial growth incubated for 24 hrs by Mueller-Hinton agar based analysis; format: functional
Escherichia coli [8] = assay: Antibacterial activity against Escherichia coli assessed as reduction in bacterial growth incubated for 24 hrs by Mueller-Hinton agar based analysis; format: functional
[9] = Antioxidant activity assessed as DPPH radical scavenging activity incubated for 20 mins by spectrophotometric method; format: functional
Mushroom tyrosinase = Mushroom tyrosinase (Agaricus bisporus, UniProt O42713+Q00024+C7FF04+C7FF05); assay: Inhibition of mushroom tyrosinase using L-DOPA as substrate by spectrophotometric analysis; format: protein assay
Escherichia coli [10] = assay: microbe, parasite or virus in culture; conditions: ATCC 25922, 24 h
MIA PaCa-2 = assay: Growth inhibition of human MIA PaCa-2 cells measured for 48 hrs by SRB assay; format: functional
Escherichia coli [11] = assay: Antibacterial activity against Escherichia coli assessed as reduction in bacterial growth inhibition; format: functional
Salmonella enteritidis = assay: Antibacterial activity against Salmonella enterica subsp. enterica serovar Enteritidis assessed as reduction in bacterial growth inhibition; format: functional
Clostridium perfringens [12] = assay: Antibacterial activity against Clostridium perfringens assessed as reduction in bacterial growth inhibition; format: functional
Salmonella typhimurium [13] = assay: Antibacterial activity against Salmonella typhimurium DT104 assessed as reduction in bacterial growth inhibition; format: functional, Salmonella enterica subsp. enterica serovar Typhimurium
Helicobacter pylori = assay: Antibacterial activity against Helicobacter pylori assessed as reduction in bacterial growth incubated for 24 hrs by broth micro-dilution method; format: functional
Clostridium perfringens [14] = assay: Antibacterial activity against Clostridium perfringens assessed as inhibition of bacterial growth incubated for 18 hrs by CLSI protocol based microbroth dilution method; format: functional
Pseudomonas aeruginosa [15] = assay: Antibacterial activity against Pseudomonas aeruginosa ATCC 27853 assessed as bacterial growth inhibition measured after 18 hrs by CLSI protocol based two-fold serial microdilution method; format: functional
Escherichia coli [16] = assay: Antibacterial activity against Escherichia coli ATCC 25922 assessed as zone of inhibition incubated for 24 hrs by agar diffusion method; format: functional

T1 sequence (P22303 whole entry): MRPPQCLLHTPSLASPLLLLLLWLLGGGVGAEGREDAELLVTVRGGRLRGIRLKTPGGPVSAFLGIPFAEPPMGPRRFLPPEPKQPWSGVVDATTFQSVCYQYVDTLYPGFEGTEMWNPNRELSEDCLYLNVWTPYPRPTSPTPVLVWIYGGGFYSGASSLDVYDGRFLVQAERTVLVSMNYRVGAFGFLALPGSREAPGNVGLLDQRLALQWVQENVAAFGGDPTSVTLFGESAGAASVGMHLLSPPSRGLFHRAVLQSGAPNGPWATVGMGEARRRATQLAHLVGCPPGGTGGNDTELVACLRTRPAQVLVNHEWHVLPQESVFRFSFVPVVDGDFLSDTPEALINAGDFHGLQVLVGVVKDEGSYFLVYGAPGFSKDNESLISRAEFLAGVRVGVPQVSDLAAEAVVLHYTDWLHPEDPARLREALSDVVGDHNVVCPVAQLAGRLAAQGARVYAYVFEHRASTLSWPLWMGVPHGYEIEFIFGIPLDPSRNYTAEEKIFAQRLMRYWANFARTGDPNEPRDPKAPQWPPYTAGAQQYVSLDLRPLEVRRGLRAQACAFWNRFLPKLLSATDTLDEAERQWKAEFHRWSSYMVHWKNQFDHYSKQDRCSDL
Chain of Cholinesterase (P06276 whole entry): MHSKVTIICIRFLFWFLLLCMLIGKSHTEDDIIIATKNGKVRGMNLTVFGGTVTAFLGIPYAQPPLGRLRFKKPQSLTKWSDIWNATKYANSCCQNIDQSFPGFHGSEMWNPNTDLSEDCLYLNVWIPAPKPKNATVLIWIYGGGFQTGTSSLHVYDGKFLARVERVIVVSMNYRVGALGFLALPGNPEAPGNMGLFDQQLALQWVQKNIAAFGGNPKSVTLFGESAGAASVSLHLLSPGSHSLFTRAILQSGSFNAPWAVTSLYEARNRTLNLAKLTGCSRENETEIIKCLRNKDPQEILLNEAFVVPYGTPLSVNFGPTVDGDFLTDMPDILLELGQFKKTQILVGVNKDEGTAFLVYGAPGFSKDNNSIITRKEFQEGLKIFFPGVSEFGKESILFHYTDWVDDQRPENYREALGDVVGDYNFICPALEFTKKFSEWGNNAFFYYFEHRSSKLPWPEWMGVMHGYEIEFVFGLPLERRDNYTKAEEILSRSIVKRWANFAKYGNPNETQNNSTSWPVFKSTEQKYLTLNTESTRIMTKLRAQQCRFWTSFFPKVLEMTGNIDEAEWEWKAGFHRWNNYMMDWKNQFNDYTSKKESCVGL

SMILES: CCOc1cc(C(C)C)ccc1C
- MIC (Salmonella typhimurium [1]): 0.2 µg/mL (≈ 1.12 µM)

SMILES: Cc1ccc(C(C)C)cc1OCCn1c([N+](=O)[O-])cnc1C
- MIC (Clostridium perfringens [2]): 1 µg/mL (≈ 3.3 µM)

SMILES: Cc1ccc(C(C)C)cc1OC(=O)Cn1c([N+](=O)[O-])cnc1C
- MIC (Clostridium perfringens [2]): 2.7 µg/mL (≈ 8.51 µM)

SMILES: Cc1ccc(C(C)C)cc1OCC(=O)N(C(C)C)C(C)C
- IC50 (Cholinesterase): 50 nM
- IC50 (Acetylcholinesterase [3]): 1930 nM

SMILES: Cc1ccc(C(C)C)cc1OCC(=O)N1Cc2ccccc2C1
- IC50 (Cholinesterase): 50 nM
- IC50 (Acetylcholinesterase [3]): 1930 nM

SMILES: CCS(=O)(=O)Oc1cc(C(C)C)ccc1C
- EC50 (Phytophthora capsici): 0.0666 µg/mL (≈ 0.275 µM)

SMILES: Cc1ccc(C(C)C)cc1OCC(O)CNC(C)(C)C (stereo not given)
- IC50 (Acetylcholinesterase [4]): 136 nM

SMILES: Cc1ccc(C(C)C)cc1OC1CC[C@H](O)[C@@H](CO)O1 (stereo not given in full)
- MIC [5]: 0.5 µg/mL (≈ 1.78 µM)

SMILES: CC(=O)N[C@@H](CS)C(=O)Oc1cc(C(C)C)ccc1C
- MIC (Staphylococcus aureus): 10 µg/mL (≈ 33.9 µM)
- MIC (Pseudomonas aeruginosa [6]): 10 µg/mL (≈ 33.9 µM)
- MIC [7]: 5 µg/mL (≈ 16.9 µM)
- MIC (Escherichia coli [8]): 10 µg/mL (≈ 33.9 µM)

SMILES: C=CCSC[C@H](NC(C)=O)C(=O)Oc1cc(C(C)C)ccc1C
- MIC (Staphylococcus aureus): 2.5 µg/mL (≈ 7.45 µM)
- MIC (Pseudomonas aeruginosa [6]): 5 µg/mL (≈ 14.9 µM)
- MIC [7]: 2.5 µg/mL (≈ 7.45 µM)
- MIC (Escherichia coli [8]): 2.5 µg/mL (≈ 7.45 µM)

SMILES: Cc1cc(Cc2cc(C)c(O)cc2C(C)C)c(C(C)C)cc1O
- IC50 [9]: 122 µg/mL (≈ 390 µM)

SMILES: Cc1ccc(C(C)C)cc1OC(=O)COC(=O)/C=C/c1ccccc1
- IC50 (Mushroom tyrosinase): 7700 nM

SMILES: Cc1ccc(C(C)C)cc1OC(=O)C(C)C
- MIC (Escherichia coli [10]): 11.7 µg/mL (≈ 53.1 µM)

SMILES: Cc1ccc(C(C)C)cc1OC(=O)COC(=O)c1ccc(O)cc1
- IC50 (Mushroom tyrosinase): 14900 nM

SMILES: Cc1ccc(C(C)C)cc1OCC(=O)O
- MIC (Salmonella typhimurium [1]): 0.1 µg/mL (≈ 0.48 µM)

SMILES: Cc1ccc(C(C)C)c(/C=N/Nc2cc(Cl)ncn2)c1O
- GI50 (MIA PaCa-2): 80 µg/mL (≈ 262 µM)

SMILES: Cc1ccc(C(C)C)cc1OCC(=O)NCCC1=CCCCC1
- IC50 (Cholinesterase): 50 nM
- IC50 (Acetylcholinesterase [3]): 1930 nM

SMILES: Cc1ccc(C(C)C)cc1OC(=O)COC(=O)c1ccc(O)c(O)c1
- IC50 (Mushroom tyrosinase): 15900 nM

SMILES: C=CCNCC(O)COc1cc(C(C)C)ccc1C (stereo not given)
- IC50 (Acetylcholinesterase [4]): 136 nM

SMILES: Cc1ccc(S(=O)(=O)N/N=C/c2c(C(C)C)ccc(C)c2O)cc1
- GI50 (MIA PaCa-2): 10 µg/mL (≈ 28.9 µM)

SMILES: Cc1ccc(C(C)C)cc1OCC(O)CNCCC1=CCCCC1 (stereo not given)
- IC50 (Acetylcholinesterase [4]): 136 nM

SMILES: CCCCCCCCCCCC(=O)Oc1cc(C(C)C)ccc1C
- MIC (Escherichia coli [11]): >10 %v/v
- MIC (Salmonella enteritidis): >10 %v/v
- MIC (Clostridium perfringens [12]): <10 %v/v
- MIC (Salmonella typhimurium [13]): >10 %v/v

SMILES: C/C=C/C(=O)Oc1cc(C(C)C)ccc1C
- MIC (Escherichia coli [10]): 11.7 µg/mL (≈ 53.6 µM)

SMILES: Cc1cccc(COc2cc(C(C)C)ccc2C)c1
- MIC (Helicobacter pylori): 2 µg/mL (≈ 7.86 µM)

SMILES: CCN(CC)CC(O)COc1cc(C(C)C)ccc1C (stereo not given)
- IC50 (Acetylcholinesterase [4]): 136 nM

SMILES: Cc1ccc(C(C)C)cc1OC(=O)c1ccccc1
- MIC (Escherichia coli [10]): 11.7 µg/mL (≈ 46 µM)

SMILES: C=CCOc1cc(C(C)C)ccc1C
- MIC (Clostridium perfringens [14]): 110 µg/mL (≈ 578 µM)
- MIC (Pseudomonas aeruginosa [15]): 110 µg/mL (≈ 578 µM)

SMILES: Cc1cc(S(=O)(=O)[O-])c(C(C)C)cc1O.[K+]
- MIC (Escherichia coli [11]): 5 %v/v
- MIC (Salmonella enteritidis): 1.25 %v/v
- MIC (Clostridium perfringens [12]): 0.37 %v/v
- MIC (Salmonella typhimurium [13]): 1.25 %v/v

SMILES: Cc1ccc(C(C)C)cc1OCC(=O)NNS(=O)(=O)c1cccc(C(F)(F)F)c1
- inhibition zone (IZ) (Escherichia coli [16]): 10 mm

SMILES: CNC(=O)COc1cc(C(C)C)ccc1C
- IC50 (Cholinesterase): 50 nM
- IC50 (Acetylcholinesterase [3]): 1930 nM

SMILES: Cc1ccc(C(C)C)cc1OCC(=O)N/N=C/c1c(C(C)C)ccc(C)c1O
- IC50 [9]: 0.16 µg/mL (≈ 0.418 µM)

SMILES: Cc1ccc(C(C)C)cc1OC(=O)COC(=O)/C=C/c1ccc(Cl)cc1
- IC50 (Mushroom tyrosinase): 6700 nM

SMILES: Cc1ccc(C(C)C)cc1OCC(=O)NCc1ccc2c(c1)OCO2
- IC50 (Cholinesterase): 50 nM
- IC50 (Acetylcholinesterase [3]): 1930 nM

SMILES: Cc1ccc(C(C)C)cc1OC(=O)COC(=O)/C=C/c1ccc(O)cc1
- IC50 (Mushroom tyrosinase): 6500 nM

SMILES: Cc1cc(CO)c(C(C)C)cc1O
- IC50 [9]: 156 µg/mL (≈ 865 µM)

SMILES: CCCNC(=O)COc1cc(C(C)C)ccc1C
- IC50 (Cholinesterase): 50 nM
- IC50 (Acetylcholinesterase [3]): 1930 nM

Source: ChEMBL document CHEMBL5576070, “The recent discovery of a promising pharmacological scaffold derived from carvacrol: A review” (Bioorg Med Chem Lett, 2024)
